Source: patent EP4159721A1, “CONDENSED 3,3-DIFLUORO-PIPERIDINE DERIVATIVES AS INHIBITORS OF CORONAVIRUSES 3-CHYMOTRYPSIN-LIKE PROTEASE” (Qubit Pharmaceuticals, priority 2021, dated 2023)

What follows are compounds tested against T1, SARS-CoV-2 3CLpro (Severe acute respiratory syndrome coronavirus 2, UniProt P0DTD1) (assay: FRET-based assay of 3CLpro inhibitory activity). Conditions: not given.
Format: biochemical

Row | SMILES | IC50
1 | CSc1cc2c(cn1)C(=O)C(F)(F)C(=O)N2 [Compound 13, 3,3-difluoro-7-(methylsulfanyl)-1,2,3,4-tetrahydro-1,6-naphthyridine-2,4-dione] | 2270 nM

Same assay, conditions: 0.02 µM 3CLpro, 5 µM peptide substrate, 20 minutes incubation at room temperature; triplicate, average and standard deviation; read-out: IC50

Row | SMILES | IC50
2 | CSc1ccc2c(c1)NC(=O)C(F)(F)C2=O [Compound 14, 3,3-difluoro-7-(methylsulfanyl)-1,2,3,4-tetrahydroquinoline-2,4-dione] | 830 nM

What follows are compounds tested against T1, SARS-CoV-2 3CLpro (assay: Binding assessment by Nuclear Magnetic Resonance (WaterLOGSY and STD)). Conditions: NMR (WaterLOGSY, STD); 10 µM of 3CLpro, ligand 100 µM to 2 mM, pH=7.3.
Parameters: key: +++: strong binder; ++: binder; +/-: not to very low binder

Row | SMILES | Binding Activity
3 | CSc1ccc2c(c1)NCC(F)(F)C2O (single isomer, unassigned) [Compound 1 or 2, 3,3-difluoro-7-(methylsulfanyl)-1,2,3,4-tetrahydroquinolin-4-ol] | ++
4 | CSc1cc2c(cn1)C(O)C(F)(F)CN2 (single isomer, unassigned) [Compound 3 or 4, 3,3-difluoro-7-(methylsulfanyl)-1,2,3,4-tetrahydro-1,6-naphthyridin-4-ol] | +++
5 | CSc1ccc2c(c1)NC(=O)C(F)(F)C2O (single isomer, unassigned) [Compound 5 or 6, 3,3-difluoro-4-hydroxy-7-(methylsulfanyl)-1,2,3,4-tetrahydroquinolin-2-one] | +++
6 | CSc1cc2c(cn1)C(O)C(F)(F)C(=O)N2 (single isomer, unassigned) [Compound 7 or 8, 3,3-difluoro-4-hydroxy-7-(methylsulfanyl)-1,2,3,4-tetrahydro-1,6-naphthyridin-2-one] | ++
7 | CSc1ccc2c(c1)NC(=O)C(F)(F)C2C (single isomer, unassigned) [Compound 9 or 10, 3,3-difluoro-4-methyl-7-(methylsulfanyl)-1,2,3,4-tetrahydroquinolin-2-one] | +++
8 | CSc1ccc2c(c1)NCC(F)(F)C2C (single isomer, unassigned) [Compound 11 or 12, 3,3-difluoro-4-methyl-7-(methylsulfanyl)-1,2,3,4-tetrahydroquinoline] | ++
9 | O=C1Nc2cc(SC3CC3)ccc2C(O)C1(F)F (single isomer, unassigned) [Compound 15 or 16] | ++
10 | CSc1cc(F)c2c(c1)NC(=O)C(F)(F)C2O (single isomer, unassigned) [Compound 17 or 18] | ++
11 | Cc1nn(C)c2c1C(O)C(F)(F)C(=O)N2 (single isomer, unassigned) [Compound 19 or 20, 5,5-difluoro-4-hydroxy-1,3-dimethyl-1H,4H,5H,6H,7H-pyrazolo[3,4-b]pyridin-6-one] | ++
12 | CSc1ccc2c(c1)NC(=O)CC2C (centres unmarked) [reference compound] | +/-
13 | CSc1ccc2c(c1)NC(=O)CC2=O [reference compound] | +/-
14 | O=C1Nc2ccccc2C(O)C1(F)F (centres unmarked) [reference compound] | +/-
15 | CSc1ccc2c(c1)NC(=O)C(F)(F)C2(C)O (centres unmarked) [reference compound] | +/-

What follows are compounds tested against T1, SARS-CoV-2 3CLpro (assay: Binding studies by Mass Spectrometry (ESI-MS, denaturing conditions)). Conditions: 10 µM 3CLpro, 1:1 or 10:1 compound:protein, 20 min at room temperature.

Row | SMILES | Covalent binding
16 | CSc1cc2c(cn1)C(=O)C(F)(F)C(=O)N2 [Compound 13, 3,3-difluoro-7-(methylsulfanyl)-1,2,3,4-tetrahydro-1,6-naphthyridine-2,4-dione] | Covalent binding is confirmed
17 | CSc1ccc2c(c1)NC(=O)C(F)(F)C2=O [Compound 14, 3,3-difluoro-7-(methylsulfanyl)-1,2,3,4-tetrahydroquinoline-2,4-dione] | Covalent binding is confirmed
